Results taken from ChEMBL document CHEMBL3727346, “6-(pyridinyl)-4-pyrimidone derivates as tau protein kinase 1 inhibitors” (2011).
Active and inactive are the calls of the source. The rule behind the calls is not given here.

Each compound was assayed against Glycogen synthase kinase-3 beta splice variant X1 (Bos taurus) (UniProt A0A059UE90) (assay: Inhibition of bovine cerebral TPK1 assessed as reduction in P-GS1 phosphorylation using [32gammaP]ATP incubated for 2 hrs by liquid scintillation counting method).

inhibition, active:
Cn1c(N2CCO[C@@H](c3ccc(N4CC[C@@H](O)C4)cc3)C2)nc(-c2ccncc2F)cc1=O
Cn1c(N2CCO[C@@H](c3ccc(NS(C)(=O)=O)cc3)C2)nc(-c2ccncc2F)cc1=O
CC(=O)c1ccc([C@H]2CN(c3nc(-c4ccncc4F)cc(=O)n3C)CCO2)cc1
Cn1c(N2CCO[C@@H](c3ccc(N)c(F)c3)C2)nc(-c2ccncc2F)cc1=O
COc1ccc(C2(O)CCN(C)CC2)cc1[C@H]1CN(c2nc(-c3ccncc3F)cc(=O)n2C)CCO1
COC(C)(C)C(=O)N(C)c1ccc([C@H]2CN(c3nc(-c4ccncc4F)cc(=O)n3C)CCO2)cc1
Cn1c(N2CCO[C@@H](c3ccc(N(C4CCCCC4)S(=O)(=O)c4ccccc4)cc3)C2)nc(-c2ccncc2F)cc1=O
Cn1c(N2CCO[C@@H](c3ccc(N4CCNC4=O)cc3)C2)nc(-c2ccncc2F)cc1=O
Cn1c(N2CCO[C@@H](c3ccc(NC4CCCC4)cc3)C2)nc(-c2ccncc2F)cc1=O
Cn1c(N2CCO[C@@H](c3ccc(N(C(=O)C4CC4)C4CCCCC4)cc3)C2)nc(-c2ccncc2F)cc1=O
CCN(CC)c1ccc([C@H]2CN(c3nc(-c4ccncc4F)cc(=O)n3C)CCO2)c(OC)c1
CCCCOc1ccc(-c2ccc([C@H]3CN(c4nc(-c5ccncc5F)cc(=O)n4C)CCN3)cc2)cc1
Cn1c(N2CCO[C@@H](c3ccc(-c4nnco4)cc3)C2)nc(-c2ccncc2F)cc1=O
CCOC(=O)Nc1ccc([C@H]2CN(c3nc(-c4ccncc4F)cc(=O)n3C)CCO2)cc1
Cn1c(N2CCN[C@@H](c3ccc(-c4ccc(C#N)cc4)cc3)C2)nc(-c2ccncc2F)cc1=O
Cn1c(N2CCO[C@@H](c3ccc(NC(=O)C(C)(C)O)cc3)C2)nc(-c2ccncc2F)cc1=O
COc1cc(N(C)C)ccc1[C@H]1CN(c2nc(-c3ccncc3F)cc(=O)n2C)CCO1
CN(C)[C@@H]1CCN(c2ccc([C@H]3CN(c4nc(-c5ccncc5F)cc(=O)n4C)CCN3)cc2)C1
Cn1c(N2CCO[C@@H](c3ccc(N4CC[C@@H](N5CCOCC5)C4)cc3)C2)nc(-c2ccncc2F)cc1=O
CN1CCC2(CCN(c3ccc([C@H]4CN(c5nc(-c6ccncc6F)cc(=O)n5C)CCN4)cc3)CC2)C1
Cn1c(N2CCO[C@@H](c3ccc(-c4ncon4)cc3)C2)nc(-c2ccncc2F)cc1=O
Cn1c(N2CCOC(c3ccc(Br)cc3)C2)nc(-c2ccncc2F)cc1=O (centres undefined)
Cn1c(N2CCO[C@@H](c3ccc(N4CC[C@H](N5CCOCC5)C4)cc3)C2)nc(-c2ccncc2F)cc1=O
Cn1c(N2CCN[C@@H](c3ccc(N4CCOCC4)cc3)C2)nc(-c2ccncc2F)cc1=O
CC(=O)N[C@H]1CCN(c2ccc([C@H]3CN(c4nc(-c5ccncc5F)cc(=O)n4C)CCO3)cc2)C1
COc1ccc([C@H]2CN(c3nc(-c4ccncc4F)cc(=O)n3C)CCO2)cc1
Cn1c(N2CCO[C@@H](c3ccc(NC(=O)CN4CCN(c5ccccc5)CC4)cc3)C2)nc(-c2ccncc2F)cc1=O
CN(C)c1ccc([C@H]2CN(c3nc(-c4ccncc4F)cc(=O)n3C)CCO2)cc1
Cn1c(N2CCO[C@@H](c3ccc(N(C(=O)c4ccccc4)C4CCCCC4)cc3)C2)nc(-c2ccncc2F)cc1=O
CN(C)C(=O)c1ccc([C@H]2CN(c3nc(-c4ccncc4F)cc(=O)n3C)CCO2)cc1
Cn1c(N2CCN[C@@H](c3ccc(N4CCC(O)C4)cc3)C2)nc(-c2ccncc2F)cc1=O (some centres undefined)
CC(C)c1ccc(-c2ccc([C@H]3CN(c4nc(-c5ccncc5F)cc(=O)n4C)CCN3)cc2)cc1
Cn1c(N2CCO[C@@H](c3ccc(N4CCC(O)C4)cc3)C2)nc(-c2ccncc2F)cc1=O (some centres undefined)
Cn1c(N2CCO[C@@H](c3ccc(NC(=O)N4CCOCC4)cc3)C2)nc(-c2ccncc2F)cc1=O
COc1ccc(NS(C)(=O)=O)cc1[C@H]1CN(c2nc(-c3ccncc3F)cc(=O)n2C)CCO1
CN(C)C1CCN(c2ccc([C@H]3CN(c4nc(-c5ccncc5F)cc(=O)n4C)CCO3)cc2)CC1
Cn1c(N2CCOC(c3cccc(-c4nccs4)c3)C2)nc(-c2ccncc2F)cc1=O (centres undefined)
Cn1c(N2CCO[C@@H](c3ccc([N+](=O)[O-])cc3)C2)nc(-c2ccncc2F)cc1=O
CN1CCN(CCOc2ccc([C@H]3CN(c4nc(-c5ccncc5F)cc(=O)n4C)CCO3)cc2)CC1
Cn1c(N2CCO[C@@H](c3ccc(OCCN4CCCCC4)cc3)C2)nc(-c2ccncc2F)cc1=O
Cn1c(N2CCO[C@@H](c3ccc(NC(=O)CN4CCOCC4)cc3)C2)nc(-c2ccncc2F)cc1=O
Cn1c(N2CCO[C@@H](c3ccc(O)cc3)C2)nc(-c2ccncc2F)cc1=O
Cn1c(N2CCN[C@@H](c3ccc(N4CCN(CCO)CC4)cc3)C2)nc(-c2ccncc2F)cc1=O
Cn1c(N2CCN[C@@H](c3ccc(N4CCC(N5CCCC5)CC4)cc3)C2)nc(-c2ccncc2F)cc1=O
CN(C)c1ccc([C@H]2CN(c3nc(-c4ccncc4F)cc(=O)n3C)CCN2)cc1
CN(c1ccc([C@H]2CN(c3nc(-c4ccncc4F)cc(=O)n3C)CCO2)cc1)C1CCCCCC1
Cn1c(N2CCO[C@@H](c3ccc(N4CCCCC4)cc3)C2)nc(-c2ccncc2F)cc1=O
Cn1c(N2CCO[C@@H](c3cccc(NS(C)(=O)=O)c3)C2)nc(-c2ccncc2F)cc1=O
Cn1c(N2CCO[C@@H](c3ccc(NC(=O)OCc4ccccc4)cc3)C2)nc(-c2ccncc2F)cc1=O
Cn1c(N2CCO[C@@H](c3ccc(OCCCN4CCCC4)cc3)C2)nc(-c2ccncc2F)cc1=O
Cn1c(N2CCN[C@@H](c3ccc(N4CCC(N5CCCCC5)CC4)cc3)C2)nc(-c2ccncc2F)cc1=O
CN(C)[C@@H]1CCN(c2ccc([C@H]3CN(c4nc(-c5ccncc5F)cc(=O)n4C)CCO3)cc2)C1
Cn1c(N2CCO[C@@H](c3ccccc3)C2)nc(-c2ccncc2F)cc1=O
Cn1c(N2CCN[C@@H](c3ccc(-c4ccc(C(F)(F)F)cc4)cc3)C2)nc(-c2ccncc2F)cc1=O
CN(C)CCCOc1ccc([C@H]2CN(c3nc(-c4ccncc4F)cc(=O)n3C)CCO2)cc1
COc1ccc(N)cc1[C@H]1CN(c2nc(-c3ccncc3F)cc(=O)n2C)CCO1
Cn1c(N2CCO[C@@H](c3ccc(NS(=O)(=O)c4ccccc4)cc3)C2)nc(-c2ccncc2F)cc1=O
CC(C)Oc1ccc([C@H]2CN(c3nc(-c4ccncc4F)cc(=O)n3C)CCO2)cc1
CC(=O)Nc1ccc([C@H]2CN(c3nc(-c4ccncc4F)cc(=O)n3C)CCO2)cc1
